Results reported in publication PMC4721062, “Oxadiazole-2-oxides may have other functional targets, in addition to SjTGR, through which they cause mortality in Schistosoma japonicum” (Parasites & Vectors, 2016).
Entries after “also recorded” stand apart in the source; their conditions may differ. Read-outs that look alike come from different tables or passages of the source.

Tests used:
[1] = system: adult S. japonicum in mice; assay: Treatment of infected mice at adult worm stage; type: in vivo, Schistosoma japonicum (ICR mice); settings: for Reduction in the female worms: mice treated at adult worm stage (data not shown); for Number of eggs per gram of liver (Mean ± SD) / Number of worms (Mean ± SD) / Egg reduction rate / Worm reduction rate: mice, 10 mg/kg i.p. daily for 5 days from day 35 post-infection; for Number of eggs per gram of liver (Mean ± SD) / Number of worms (Mean ± SD): sacrificed day 42; for Egg reduction rate / Worm reduction rate: versus control
Protocol: (§1) The abdominal skin of each mouse (ICR, female, 22–24 g) was exposed to 20 S. japonica cercariae (as described above). The mice were intraperitoneally injected with 10 mg/kg oxadiazole-2-oxides daily for 5 days, beginning either 7 or 35 days post-infection. Control mice were treated with 10 mg/kg of the carrier medium. All mice were sacrificed 42 days post-infection. The worm burden of each mouse was confirmed by counting the number of worms observed from a portal vein perfusion. The mouse livers were digested overnight with 5 % potassium hydroxyl solution at 37 °C and the eggs in the liver tissue were counted under an inverted phase contrast microscope. The worm and egg reduction rates were calculated using the following formulas: Wormreductionrate%=meannumberofadultwormspermouseincontrolgroup−meannumberofadultwormspermouseinexperimentalgroup/meannumberofadultwormspermouseincontrolgroup. Eggreductionrate%=meannumberofeggspermouseincontrolgroup−meannumberofeggspermouseinexperimentalgroup/meannumberofeggspermouseincontrolgroup.

[2] = system: juvenile S. japonicum in mice; assay: Treatment of infected mice at juvenile worm stage; type: in vivo, Schistosoma japonicum (ICR mice); settings: 10 mg/kg i.p. daily for 5 days from day 7 post-infection; for Number of eggs per gram of liver (Mean ± SD) / Number of worms (Mean ± SD): sacrificed day 42; for Egg reduction rate / Worm reduction rate: versus control, 10 mg/kg
Protocol: as §1

[3] = molecular target: T1, recombinant SjTGR (Schistosoma japonicum, UniProt B5THG7); assay: Inhibition of TrxR activity of recombinant SjTGR (DTNB assay); type: biochemical; settings: 50 nM SjTGR, 1 mM NADPH, 15 min preincubation, DTNB reduction
T1 sequence (B5THG7 1-596): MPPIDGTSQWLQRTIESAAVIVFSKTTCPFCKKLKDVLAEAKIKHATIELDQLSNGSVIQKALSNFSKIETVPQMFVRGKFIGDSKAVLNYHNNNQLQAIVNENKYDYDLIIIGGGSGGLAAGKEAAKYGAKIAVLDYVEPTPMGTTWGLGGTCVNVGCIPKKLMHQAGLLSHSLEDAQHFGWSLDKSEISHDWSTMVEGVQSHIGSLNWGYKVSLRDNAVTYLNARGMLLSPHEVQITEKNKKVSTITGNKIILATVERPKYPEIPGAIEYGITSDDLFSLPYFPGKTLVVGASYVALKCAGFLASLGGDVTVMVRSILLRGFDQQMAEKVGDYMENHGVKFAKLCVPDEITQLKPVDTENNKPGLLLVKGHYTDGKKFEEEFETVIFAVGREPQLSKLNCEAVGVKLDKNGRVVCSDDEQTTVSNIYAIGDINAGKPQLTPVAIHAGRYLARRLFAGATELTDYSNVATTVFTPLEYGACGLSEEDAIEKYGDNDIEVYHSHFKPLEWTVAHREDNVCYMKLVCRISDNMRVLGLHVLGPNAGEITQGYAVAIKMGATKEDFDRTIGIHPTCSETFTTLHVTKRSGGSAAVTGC
In short: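 SjTGR (50 nM) preincubated 15 min at room temperature with 1 mM NADPH and oxadiazole-2-oxides (2-20 μM). Reaction started with potassium phosphate pH 7.4, 10 mM EDTA, 100 μM NADPH, 3 mM DTNB; A412 increase followed over first 2 min, triplicates.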

[4] = Cytotoxicity assay on Hela cells (MTT); type: cell-based; settings: human
Protocol: Cytotoxicity assays were performed using Hela cells. Cells in the exponential growth phase were collected by centrifugation and a concentration of 4–5 × 10^4/mL was created. 100 μL of the cell suspension was added to each well of a 96-well plate and cultured overnight at 37 °C in a humid atmosphere with 5 % CO2. Oxadiazole-2-oxides (at 10, 20, 40, 80 and 160 μM) were added. Each concentration was assayed in triplicate, and control wells (no cells and no drugs) were assayed at the same time. The “no cell” control wells only contained RPMI 1640 medium, MTT, DMSO, and oxadiazole-2-oxides. The “no drug” control wells contained the Hela cells, RPMI 1640 medium, MTT and DMSO. The cells were cultured for 48 h at 37 °C in a humid atmosphere with 5 % CO2. Then, 20 μL of 5 mg/mL MTT was added to each well and the culture conditions were maintained for 4 h. After this point, the medium was removed and 150 μL DMSO was added into each well to dissolve any crystallisation. The value of absorbance at 570 nm of each well was measured (at 570 nm) with a microplate reader to assess the toxic effect of the oxadiazole-2-oxides on the vertebrate cells.

[5] = system: S. mansoni; settings: compared with 10 μM, 72 h data; cited from earlier work
[6] = system: adult S. japonica; assay: Activity against adult S. japonica in vitro with and without NO scavenger carboxy-PTIO; type: cell-based, Schistosoma japonicum; design: dose or concentration left out as unconfirmed; settings: adult worms in vitro
Protocol: To assess the importance of NO production, the potassium salt of carboxy-PTIO, a NO scavenger, was dissolved in water and 100 mM was incubated with freshly perfused adult S. japonica in the presence or absence of […] oxadiazole-2-oxides. The worms’ mobility, tegumental alterations and parasite survival were monitored using an inverted microscope. The experiment was done in triplicate.
Fig. 4 Activity of oxadiazole-2-oxides against adult S. japonica in vitro, with and without carboxy-PTIO. Carboxy-PTIO was incubated with freshly perfused adult S. japonica at 100 mM in the presence and absence of […] oxadiazole-2-oxides. The worms’ mobility, tegumental alterations and survival rates were monitored under an inverted microscope. The experiment was done in triplicate. The percentage of adult worms that survived are shown (mean ± SD; n = 3)

Row | SMILES | Number of eggs per gram of liver (Mean ± SD) [1] | Number of worms (Mean ± SD) [1] | Number of eggs per gram of liver (Mean ± SD) [2] | Number of worms (Mean ± SD) [2] | Egg reduction rate [2] | Worm reduction rate [2] | IC50 ([3]; read-out: IC50 of SjTGR) [µM] | viability at 72 h, 80 µM [4] [%] | also measured
1 | COc1ccc(-c2no[n+]([O-])c2CO)cc1 [Compound 4a] | 7730.8 ± 1457.8 (P < 0.05^**) | 4.0 ± 2.5 (P > 0.05^**) | 4,258.9 ± 1,910.0 (P > 0.05^**) | 1.3 ± 0.8 (P > 0.05^**) | 47.0 (P < 0.05^*) % | 87.7 (P < 0.01^*) % | 2.7 | 91 | Reduction in the female worms [1]: 36.8%; Egg reduction rate ([1]; 10 mg/kg): 3.8 (P > 0.05^*) %; Worm reduction rate ([1]; 10 mg/kg): 66.7 (P < 0.01^*) %
2 | Cc1ccc(-c2no[n+]([O-])c2CO)cc1 [Compound 4b] | 7007.8 ± 2420.2 (P < 0.05^**) | 9.0 ± 3.8 (P < 0.05^**) | 8,669.2 ± 2,255.8 (P < 0.05^**) | 1.8 ± 1.5 (P > 0.05^**) |  | 83.1 (P < 0.01^*) % | 1.7 | 96 | Egg reduction rate [1]: 12.8 (P > 0.05^*) %; Worm reduction rate [1]: 25.0 (P > 0.05^*) %
3 | COc1ccc(-c2no[n+]([O-])c2C#N)cc1 [Compound 7a] |  |  |  |  |  |  |  |  | Mortality in adult worms of S. mansoni [5]: 100.0%; IC50 ([3]; IC50 of SjTGR): 12.2 µM
4 | Cc1ccc(-c2no[n+]([O-])c2C#N)cc1 [Compound 7b] |  |  |  |  |  |  |  |  | Mortality in adult worms of S. mansoni [5]: 70.0%; IC50 ([3]; IC50 of SjTGR): 14.2 µM
5 | N#Cc1c(-c2ccc(Br)cc2)no[n+]1[O-] [Compound 7c] | 7213.0 ± 2658.0 (P < 0.05^**) | 12.0 ± 3.9 (P < 0.05^**) | 3,859.4 ± 3,749.4 (P > 0.05^**) | 1.4 ± 0.8 (P > 0.05^**) | 52.0 ( P > 0.05^*) % | 87.1 (P < 0.01^*) % |  | 66 | Mortality in adult worms of S. mansoni [5]: 100.0%; Killing activity with versus without carboxy-PTIO [6]: no differences in the killing activities; Egg reduction rate [1]: 10.2 (P > 0.05^*) %; IC50 ([3]; IC50 of SjTGR): 3.7 µM
6 | N#Cc1c(-c2ccc(O)cc2)no[n+]1[O-] [Compound 8] |  |  |  |  |  |  |  |  | Mortality in adult worms of S. mansoni [5]: 100.0%; IC50 ([3]; IC50 of SjTGR): 37.4 µM
7 | N#Cc1c(-c2ccc(OCCBr)cc2)no[n+]1[O-] [Compound 12] |  |  |  |  |  |  | 21.7 |  | 
8 | N#Cc1c(-c2ccc(OCCCBr)cc2)no[n+]1[O-] [Compound 13] | 8201.4 ± 2066.0 (P < 0.05^**) | 8.6 ± 2.4 (P < 0.05^**) | 3,808.9 ± 1,288.9 (P > 0.05^**) | 1.7 ± 0.7 (P > 0.05^**) | 52.6 (P < 0.05^*) % | 84.6 (P < 0.01^*) % | 1.6 | 80 | Worm reduction rate [1]: 28.3 (P < 0.05^*) %
9 | N#Cc1c(-c2ccc(OC/C=C/CBr)cc2)no[n+]1[O-] [Compound 16] | 6424.1 ± 1193.4 (P < 0.05^**) | 3.7 ± 1.4 (P > 0.05^**) | 4,054.5 ± 1,322.1 (P > 0.05^**) | 1.0 ± 0.5 (P > 0.05^**) | 49.5 (P < 0.01^*) % | 90.8 (P < 0.01^*) % | 0.5 | 89 | Killing activity with versus without carboxy-PTIO [6]: no differences in the killing activities; Reduction in the female worms [1]: 44.7%; Egg reduction rate ([1]; 10 mg/kg): 20.0 (P > 0.05^*) %; Worm reduction rate ([1]; 10 mg/kg): 69.4 (P < 0.01^*) %
10 | N#Cc1c(-c2ccc(OCc3ccccc3)cc2)no[n+]1[O-] [Compound 19] |  |  |  |  |  |  | > 20 |  | IC50 of SjTGR [3]: did not inhibit; also recorded: neither did they inhibit the SjTGR activity
11 | C#CCOc1ccc(-c2no[n+]([O-])c2C#N)cc1 [Compound 20] | 10094.7 ± 1691.0 (P < 0.05^**) | 4.7 ± 1.1 (P > 0.05^**) | 7,767.5 ± 2,676.6 (P < 0.05^**) | 3.0 ± 0.9 (P < 0.05^**) | 3.3 (P > 0.05^*) % | 69.5 (P < 0.01^*) % | 3.3 | 87 | Worm reduction rate [1]: 61.1 (P < 0.01^*) %
12 | N#Cc1c(-c2ccc(COc3ccccc3)cc2)no[n+]1[O-] [Compound 23] |  |  |  |  |  |  | > 20 |  | IC50 of SjTGR [3]: did not inhibit
13 | N#Cc1c(-c2ccc(COc3ccc(C=O)cc3)cc2)no[n+]1[O-] [Compound 26] |  |  |  |  |  |  | > 20 |  | IC50 of SjTGR [3]: did not inhibit; also recorded: neither did they inhibit the SjTGR activity
14 | Cc1ccc2cccc(OCc3ccc(-c4no[n+]([O-])c4C#N)cc3)c2n1 [Compound 28] |  |  |  |  |  |  | > 20 |  | IC50 of SjTGR [3]: did not inhibit
